Source: PubChem BioAssay (NCI)
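Cells were grown in 96-well plates and exposed to each compound for 48 hours at five concentrations; endpoints were interpolated linearly between bracketing concentrations, or set to the highest concentration if not reached. At the TGI there is no net growth.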

Assays:
Assay in all cases: DTP human tumour cell line panel, 48 h
SNB-19 CNS = system: SNB-19 CNS
A498 renal = system: A498 renal
COLO 205 colon = system: COLO 205 colon
HOP-92 NSCLC = system: HOP-92 NSCLC
SN12C renal = system: SN12C renal
ACHN renal = system: ACHN renal
RPMI-8226 leukemia = system: RPMI-8226 leukemia
SK-MEL-28 melanoma = system: SK-MEL-28 melanoma
M14 melanoma = system: M14 melanoma
UACC-62 melanoma = system: UACC-62 melanoma
A549 NSCLC = system: A549 NSCLC
CAKI-1 renal = system: CAKI-1 renal
U251 CNS = system: U251 CNS
NCI-H522 lung = system: NCI-H522 lung
SF-539 CNS = system: SF-539 CNS
OVCAR-8 ovarian = system: OVCAR-8 ovarian
SW-620 colon = system: SW-620 colon
K-562 leukemia = system: K-562 leukemia
PC-3 prostate = system: PC-3 prostate
RXF 393 renal = system: RXF 393 renal
OVCAR-5 ovarian = system: OVCAR-5 ovarian
MDA-MB-435 = system: MDA-MB-435
MOLT-4 leukemia = system: MOLT-4 leukemia
DU-145 prostate = system: DU-145 prostate
EKVX NSCLC = system: EKVX NSCLC
786-0 renal = system: 786-0 renal
SK-MEL-2 melanoma = system: SK-MEL-2 melanoma
SF-268 CNS = system: SF-268 CNS
HCT-15 colon = system: HCT-15 colon
TK-10 renal = system: TK-10 renal
HCC-2998 colon = system: HCC-2998 colon
MCF7 breast = system: MCF7 breast
HL-60(TB) leukemia = system: HL-60(TB) leukemia
OVCAR-3 ovarian = system: OVCAR-3 ovarian
NCI/ADR-RES ovarian = system: NCI/ADR-RES ovarian
T-47D breast = system: T-47D breast
KM12 colon = system: KM12 colon
SF-295 CNS = system: SF-295 CNS
LOX IMVI melanoma = system: LOX IMVI melanoma
NCI-H226 lung = system: NCI-H226 lung
NCI-H460 lung = system: NCI-H460 lung
CCRF-CEM leukemia = system: CCRF-CEM leukemia
HOP-62 NSCLC = system: HOP-62 NSCLC
MDA-N = system: MDA-N
HCT-116 colon = system: HCT-116 colon
UO-31 renal = system: UO-31 renal
HT29 colon = system: HT29 colon
OVCAR-4 ovarian = system: OVCAR-4 ovarian
SK-OV-3 ovarian = system: SK-OV-3 ovarian
UACC-257 melanoma = system: UACC-257 melanoma
SK-MEL-5 melanoma = system: SK-MEL-5 melanoma
MDA-MB-231 breast = system: MDA-MB-231 breast
NCI-H23 lung = system: NCI-H23 lung
SNB-75 CNS = system: SNB-75 CNS
SR leukemia = system: SR leukemia
MALME-3M melanoma = system: MALME-3M melanoma
IGROV1 ovarian = system: IGROV1 ovarian

COC(=O)c1c(C(=O)OC)c2ccc(-c3ccc(Cl)cc3)nn2c1C(=O)c1ccc([N+](=O)[O-])cc1
TGI (SNB-19 CNS): > 100 µM
TGI (A498 renal): > 100 µM
TGI (COLO 205 colon): > 100 µM
TGI (HOP-92 NSCLC): 39.5 µM
TGI (SN12C renal): > 100 µM
TGI (ACHN renal): > 100 µM
TGI (RPMI-8226 leukemia): 55.3 µM
TGI (SK-MEL-28 melanoma): > 100 µM
TGI (M14 melanoma): > 100 µM
TGI (UACC-62 melanoma): > 100 µM
TGI (A549 NSCLC): > 100 µM
TGI (CAKI-1 renal): 76.2 µM
TGI (U251 CNS): > 100 µM
TGI (NCI-H522 lung): 37.3 µM
TGI (SF-539 CNS): > 100 µM
TGI (OVCAR-8 ovarian): > 100 µM
TGI (SW-620 colon): > 100 µM
TGI (K-562 leukemia): > 100 µM
TGI (PC-3 prostate): > 100 µM
TGI (RXF 393 renal): 55.5 µM
TGI (OVCAR-5 ovarian): > 100 µM
TGI (MDA-MB-435): > 100 µM
TGI (MOLT-4 leukemia): 82.6 µM
TGI (DU-145 prostate): > 100 µM
TGI (EKVX NSCLC): 84.4 µM
TGI (786-0 renal): > 100 µM
TGI (SK-MEL-2 melanoma): > 100 µM
TGI (SF-268 CNS): > 100 µM
TGI (HCT-15 colon): > 100 µM
TGI (TK-10 renal): 57.9 µM
TGI (HCC-2998 colon): > 100 µM
TGI (MCF7 breast): > 100 µM
TGI (HL-60(TB) leukemia): > 100 µM
TGI (OVCAR-3 ovarian): > 100 µM
TGI (NCI/ADR-RES ovarian): > 100 µM
TGI (T-47D breast): > 100 µM
TGI (KM12 colon): > 100 µM
TGI (SF-295 CNS): > 100 µM
TGI (LOX IMVI melanoma): > 100 µM
TGI (NCI-H226 lung): > 100 µM
TGI (NCI-H460 lung): > 100 µM
TGI (CCRF-CEM leukemia): > 100 µM
TGI (HOP-62 NSCLC): > 100 µM
TGI (MDA-N): > 100 µM
TGI (HCT-116 colon): > 100 µM
TGI (UO-31 renal): > 100 µM
TGI (HT29 colon): > 100 µM
TGI (OVCAR-4 ovarian): > 100 µM
TGI (SK-OV-3 ovarian): > 100 µM
TGI (UACC-257 melanoma): > 100 µM
TGI (SK-MEL-5 melanoma): > 100 µM
TGI (MDA-MB-231 breast): > 100 µM
TGI (NCI-H23 lung): > 100 µM

CC1(C)CSCC(C)(C)C(=N/N)/C1=N\N
TGI (SNB-75 CNS): > 100 µM
TGI (SNB-19 CNS): > 100 µM
TGI (A498 renal): > 100 µM
TGI (COLO 205 colon): > 100 µM
TGI (HOP-92 NSCLC): > 100 µM
TGI (SN12C renal): > 100 µM
TGI (ACHN renal): > 100 µM
TGI (SK-MEL-28 melanoma): > 100 µM
TGI (M14 melanoma): > 100 µM
TGI (UACC-62 melanoma): > 100 µM
TGI (A549 NSCLC): > 100 µM
TGI (CAKI-1 renal): > 100 µM
TGI (U251 CNS): > 100 µM
TGI (NCI-H522 lung): > 100 µM
TGI (SF-539 CNS): > 100 µM
TGI (OVCAR-8 ovarian): > 100 µM
TGI (SW-620 colon): > 100 µM
TGI (K-562 leukemia): > 100 µM
TGI (PC-3 prostate): > 100 µM
TGI (OVCAR-5 ovarian): > 100 µM
TGI (MDA-MB-435): > 100 µM
TGI (DU-145 prostate): > 100 µM
TGI (EKVX NSCLC): > 100 µM
TGI (786-0 renal): > 100 µM
TGI (SK-MEL-2 melanoma): > 100 µM
TGI (SF-268 CNS): > 100 µM
TGI (HCT-15 colon): > 100 µM
TGI (TK-10 renal): > 100 µM
TGI (SR leukemia): > 100 µM
TGI (HCC-2998 colon): > 100 µM
TGI (MCF7 breast): > 100 µM
TGI (MALME-3M melanoma): > 100 µM
TGI (HL-60(TB) leukemia): > 100 µM
TGI (OVCAR-3 ovarian): > 100 µM
TGI (NCI/ADR-RES ovarian): > 100 µM
TGI (T-47D breast): > 100 µM
TGI (KM12 colon): > 100 µM
TGI (SF-295 CNS): > 100 µM
TGI (LOX IMVI melanoma): > 100 µM
TGI (NCI-H226 lung): > 100 µM
TGI (NCI-H460 lung): > 100 µM
TGI (HOP-62 NSCLC): > 100 µM
TGI (MDA-N): > 100 µM
TGI (HCT-116 colon): > 100 µM
TGI (HT29 colon): > 100 µM
TGI (IGROV1 ovarian): > 100 µM
TGI (SK-OV-3 ovarian): > 100 µM
TGI (UACC-257 melanoma): > 100 µM
TGI (SK-MEL-5 melanoma): > 100 µM
TGI (NCI-H23 lung): > 100 µM
